Source: ChEMBL document CHEMBL1157539, “Thousands of chemical starting points for antimalarial lead identification” (Nature, 2010)

These molecules were tested on Plasmodium falciparum (assay: GSK_TCMDC: Inhibition of Plasmodium falciparum 3D7 in whole erythrocytes, using parasite LDH activity as an index of growth.). Details: Plasmodium falciparum, 3D7.
Assay type: functional, organism-based
`CCOc1ccc2nc(C)cc(N/N=C/c3cccc([N+](=O)[O-])c3)c2c1` was tested, and the XC50 was 664 nM. `O=C(/C=C/c1ccc([N+](=O)[O-])cc1)N1CCC(CCN2CCC(c3c[nH]c4ccccc34)CC2)CC1` gave an XC50 of 743 nM. With `CC1CCN(Cc2c(O)ccc3c(O)c(-c4nc5ccccc5s4)c(=N)oc23)CC1` the XC50 was 162 nM. `CCN(CC)CCN(Cc1ccc(-c2ccc(C(F)(F)F)cc2)cc1)C(=O)Cn1c(CCc2cccc(F)c2F)cc(=O)c2c1CCCC2` was tested, and the XC50 was 866 nM. Work on `CN(C)Cc1c(O)ccc2[nH]c(-c3cccc(F)c3)nc12` yielded an XC50 of 1000 nM. In the case of `c1ccc(OCCOc2ccc(Nc3ccnc4cc5ccccc5cc34)cc2)cc1`, the XC50 is reported as 252 nM. For `Cc1ccc(/C=C/C(=O)NCCCCCN2CCC(c3c[nH]c4ccccc34)CC2)cc1`, the XC50 was 1010 nM. Work on `Cc1cc(CN2C(=O)C(c3ccccc3)(c3ccccc3)N=C2N)c(C(F)(F)F)o1` yielded an XC50 of 956 nM. Molecule `Oc1cccc(-c2nc(-c3cccc(I)c3)c(-c3ccc(-c4nc(-c5cccc(O)c5)[nH]c4-c4cccc(I)c4)cc3)[nH]2)c1` has an XC50 of 925 nM. Molecule `CC1(C)NC(N)=NC(=N)N1OCCCOc1ccc(N)cc1` has an XC50 of 7.04 nM. `CC(=O)C1(c2ccccc2)CCN(CCC2(c3ccc(Cl)c(Cl)c3)CN(C(=O)Nc3cccc(C(F)(F)F)c3)CCO2)CC1` (stereo unspecified) gave an XC50 of 1050 nM. Work on `O=C(Cc1ccccc1)NC(c1ccco1)c1cc(Cl)c2cccnc2c1O` (stereo unspecified) yielded an XC50 of 691 nM. `COc1cc(OC)c2c(c1Cl)O[C@]1(C2=O)C(=O)C(Cc2ccccc2)(Cc2ccccc2)C(=O)C[C@H]1C` gave an XC50 of 974 nM. `COc1ccc2nccc(NCC3(O)CCC(NCc4ccc5c(n4)NC(=O)CS5)CC3)c2n1` (stereo unspecified) showed an XC50 of 689 nM. In the case of `CN1CCN(c2cc(NC(=O)c3ccc(-c4ccc(C#N)cc4)cc3)ccc2Cl)CC1`, the XC50 is reported as 464 nM. In the case of `Oc1ccc(CN2CCC(N3CCN(CCc4ccccc4)CC3)C(O)C2)cc1Cl` (stereo unspecified), the XC50 is reported as 865 nM. With `CCC(C)NS(=O)(=O)c1ccc2nc(Nc3ccc(C)cc3)n([C@H](C)C(C)(C)C)c2c1` (stereo partly specified) the XC50 was 391 nM. `COc1cc(/C=C/C(=O)NC2CCC(N3CCC(c4ccccc4C)CC3)CC2)cc(OC)c1` (stereo unspecified) was tested, and the XC50 was 979 nM. Work on `CCCOc1cc(NC(=O)Nc2ccnc3ccccc23)cc(OCCC)c1` yielded an XC50 of 732 nM. Work on `Cc1ccnc(-n2c(C)cc(C=C3SC(=Nc4ccccc4)N(Cc4ccco4)C3=O)c2C)c1` yielded an XC50 of 237 nM. Work on `O=C(/C=C/c1ccc(Cl)c(Cl)c1)NCCCCCN1CCC(NC(=O)Nc2cc(F)ccc2F)CC1` yielded an XC50 of 697 nM. Molecule `Cc1cccc2nc(-c3cccc(-c4ccc(NC(=O)C(C)CN(C)C)cc4)c3)[nH]c12` (stereo unspecified) has an XC50 of 222 nM. Work on `Cc1ccccc1Oc1nc2ccccc2nc1SCC(=O)NC(C)C` yielded an XC50 of 197 nM. In the case of `O=C(/C=C/c1ccc(Cl)c(Cl)c1)N1CCC(CN2CCC(c3c[nH]c4ccc(NS(=O)(=O)c5cccs5)cc34)CC2)CC1`, the XC50 is reported as 218 nM. With `Cc1ccccc1N1CCN(c2ccc(C(=O)NC3CC3)cn2)CC1` the XC50 was 459 nM. Work on `O=C(Nc1cccc(CN2CCN(Cc3ccc(O)cc3)CC2)c1)c1cc2ccccc2o1` yielded an XC50 of 1180 nM. For `CCC(C)(C)C1CCc2nc(N)nc(N)c2C1` (stereo unspecified), the XC50 was 6.38 nM. Molecule `COc1cccc(C=NN=c2cc(C)[nH]c3ccccc23)c1` has an XC50 of 937 nM. In the case of `CC1CCCCC1N(C)C1CCN(CCCNC(=O)C=Cc2ccccc2Cl)CC1` (stereo unspecified), the XC50 is reported as 666 nM. `Cc1cc(CNCCCCCCCNCc2ccc(Cl)cc2)ccc1O` showed an XC50 of 975 nM. Work on `Cc1ccc(NC(=O)Nc2ccc(Cl)c(C(F)(F)F)c2)cc1-c1ccc(C(=O)NCCN2CCOCC2)cc1` yielded an XC50 of 811 nM. Work on `c1ccc2c(NCCOCCNc3c4ccccc4nc4ccccc34)c3ccccc3nc2c1` yielded an XC50 of 878 nM. `CCCN(CCC)C(C)CCC(C)Nc1c2ccc(Cl)cc2nc2ccc(OC)cc12` (stereo unspecified) gave an XC50 of 70.8 nM. `NC(=O)c1sc(-n2cnc3ccc(OCC4CCNCC4)cc32)cc1OCc1ccccc1C(F)(F)F` gave an XC50 of 753 nM. In the case of `CC(C#N)Cc1ccc(-c2cnc(N)c3cc(-c4ccnc(N)n4)ccc23)cc1` (stereo unspecified), the XC50 is reported as 986 nM. Molecule `CO/C(=C\C=C\c1cc2cc(Cl)c(Cl)cc2[nH]1)C(=O)NC1CC2CCC(C1)N2C` (stereo unspecified) has an XC50 of 1030 nM. `CC(=O)Nc1ccc(CN2CCC(NC(=O)c3ccc(-c4ccc(N(C)C)cc4)s3)CC2)cc1` showed an XC50 of 869 nM. `CC(C)(C)OC(=O)Nc1cccc(-c2csc(NC(=N)N)n2)c1` gave an XC50 of 836 nM. In the case of `CC(C)CCN1CCC(Oc2cccc(NC(=O)c3ccc(C(F)(F)F)cc3)c2)CC1`, the XC50 is reported as 630 nM. `Cc1ccc(NS(=O)(=O)c2cccs2)cc1-c1cccc(C(=O)Nc2ccc(F)cc2)c1` showed an XC50 of 653 nM. Work on `CC(C)C1CCc2nc(N)nc(N)c2C1` (stereo unspecified) yielded an XC50 of 139 nM. In the case of `CCCCCCN1CCCN(Cc2ccc(C(=O)Nc3ccc(C(C)(C)C)cc3)cc2)CC1`, the XC50 is reported as 744 nM. With `Cc1cccc(CN2CCN(c3ncc(C(=O)NC4CC4)cc3Cl)CC2)c1` the XC50 was 1310 nM. `CCN(CCCN1CCCCC1)c1cc(C)nc(Nc2ccc(F)c(C(F)(F)F)c2)n1` was tested, and the XC50 was 147 nM. `CCc1cn(CC(=O)N(CCOc2ccc(-c3ccc(C(F)(F)F)cc3)cc2)CCN(CC)CC)c(SCc2ccc(F)cc2)nc1=O` was tested, and the XC50 was 777 nM. `CN(c1ccnc(Nc2ccc(CS(C)(=O)=O)cc2)n1)C1CCN(Cc2ccccc2)CC1` gave an XC50 of 1400 nM. With `COC(=O)c1ccc(CC(C)NCC(O)c2ccc3ccc4ccccc4c3c2)cc1` (stereo unspecified) the XC50 was 223 nM. Molecule `CC(C)c1sc(N2CCN(C)CC2)nc1C(=O)NCCc1ccc(Cl)c(Cl)c1` has an XC50 of 1050 nM. `O=C(NCCc1ccc(Cl)c(Cl)c1)C1CCCN(C(=O)c2ccc(O)c(-c3ccc(Cl)c(Cl)c3)c2)C1` (stereo unspecified) gave an XC50 of 780 nM. In the case of `O=C(/C=C/c1ccc(Cl)c(Cl)c1)NCCCCCN1CCC(NC(=O)c2ccc(F)c(F)c2)CC1`, the XC50 is reported as 788 nM. In the case of `COc1nc(NCC(C)C)nc(Oc2ccc(=O)n(Cc3ccccc3)n2)n1`, the XC50 is reported as 631 nM. Molecule `COc1cc2nc(N3CCC(CNC(=O)c4ccc(-c5ccc(C(=O)N(C)C)cc5OCCO)cc4)CC3)nc(N)c2cc1OC` has an XC50 of 645 nM. Work on `CCOc1ccc(C(C)NC(=O)C2COc3ccccc3O2)cc1OCC` (stereo unspecified) yielded an XC50 of 899 nM. `Cc1ccc(Cn2ncc(N3CC(C)NC(C)C3)c(Cl)c2=O)cc1NC(=O)Nc1ccc(-c2ccccc2)cc1` (stereo unspecified) showed an XC50 of 739 nM. In the case of `CN1c2ccc([N+](=O)[O-])cc2C(C)(C)C12C=Cc1cc(Br)cc([N+](=O)[O-])c1O2` (stereo unspecified), the XC50 is reported as 785 nM. For `CC(=O)Nc1nc(C(=O)Nc2cccc(-c3cccc(-c4nc5ccccc5[nH]4)c3)c2)cs1`, the XC50 was 172 nM. `CCC1CN2CCc3cc(OC)c(OC)cc3C2CC1CC1NCCc2c1[nH]c1ccc(O)cc21` (stereo unspecified) showed an XC50 of 103 nM. In the case of `N#Cc1ccc(-c2ccc(C(=O)Nc3ccc4c(c3)CCN(C3CCC3)CC4)nc2)cn1`, the XC50 is reported as 1160 nM. In the case of `CC(=O)Oc1cc(C)ccc1C1CCN(CCCCNC(=O)c2ccc(NC(=O)c3ccc(Cl)cc3)cc2)CC1`, the XC50 is reported as 721 nM. In the case of `COc1ccc(NC(=O)[C@H](Cc2ccccc2)Nc2cc(C)nc(NCCc3ccc(F)cc3)n2)cc1`, the XC50 is reported as 1120 nM. `C=CCc1cc(OC)ccc1OCCCOc1c(C)nc(N)nc1N` was tested, and the XC50 was 3.2 nM. `O=C(NCCN1CCC(NC(=O)c2ccc(-c3ccccn3)s2)CC1)c1ccc(Cl)c(Cl)c1` gave an XC50 of 881 nM. With `CN(C)c1ccc(-c2ccc(C(=O)NC3CCN(Cc4ccc(C(C)(C)C)cc4)CC3)s2)cc1` the XC50 was 970 nM. For `CN(C)CCCOc1ccccc1CN1CC[C@H](NC(=O)c2ccc(Cl)c(Cl)c2)C1`, the XC50 was 1110 nM. With `Cc1[nH]c2ccc(C#N)cc2c(=O)c1Br` the XC50 was 640 nM. `O=c1ccc(CNc2nc(NCCc3ccccc3)nc3ccc(Cl)cc23)c[nH]1` gave an XC50 of 783 nM. With `Cc1cc(O)nc(NC(=N)NOCCCc2ccccc2)n1` the XC50 was 760 nM. With `O=C(/C=C/c1ccc(Cl)c(Cl)c1)NCCCCCN1CCCC(C(=O)Nc2ccc(Cl)cc2)C1` (stereo unspecified) the XC50 was 851 nM. In the case of `Cc1[nH]c2ccc(NS(C)(=O)=O)cc2c1C1CCN(CCC2CCN(C(=O)/C=C/c3ccc(Cl)c(Cl)c3)CC2)CC1`, the XC50 is reported as 844 nM. With `CCCCNc1cc(NCCCC)c2c(n1)[nH]c1ccccc12` the XC50 was 570 nM. Molecule `C=CCc1cc(Br)ccc1OCCCOc1c(N)nc(N)nc1N` has an XC50 of 192 nM. `CC(C)(C)C(C)(C)Cc1ccc(O)c(CN2CCN(c3ccccc3)CC2)c1` gave an XC50 of 601 nM. With `CCNc1cc(C(=O)N[C@@H](Cc2ccccc2)[C@H](O)CNC(C)Cc2cccc(Cl)c2)cc(N2CCCCS2(=O)=O)c1` (stereo partly specified) the XC50 was 496 nM. In the case of `Cc1ccc(-n2c(=O)c3c(n4c(SC(C)C)nnc24)-c2ccccc2CC32CCCCC2)cc1`, the XC50 is reported as 946 nM. `O=S(=O)(c1ccc(OCc2ccc(Cl)cc2)cc1)c1cc2c(cc1OCc1ccccc1)CCN(C1CCC1)CC2` gave an XC50 of 1020 nM. For `Cc1ccccc1-c1nc2c(CN3CCC(O)(c4ccccc4)CC3)c(O)ccc2[nH]1`, the XC50 was 866 nM. Work on `O=C(Nc1cccc(CN2CCCN(Cc3ccc(O)cc3)CC2)c1)c1cc2ccccc2s1` yielded an XC50 of 362 nM. `Fc1ccccc1COc1ccc(Nc2ncnc3ccc(-c4nnc(C(F)(F)F)o4)cc23)cc1Cl` was tested, and the XC50 was 731 nM. `Cc1ccc(N2CCN(CCCCNC(=O)c3ccc(NC(=O)c4ccc(Cl)cc4)cc3)CC2)c(C)c1` gave an XC50 of 764 nM. For `COc1cc(CCNc2nc(NCc3ccccc3-c3ccccc3)nc(N3CCC(N)CC3)n2)ccc1O`, the XC50 was 817 nM. In the case of `Cc1ccccc1C1CCN(C2CCC(NC(=O)/C=C/c3cccc(Cl)c3F)CC2)CC1` (stereo unspecified), the XC50 is reported as 1140 nM. For `NC(=O)c1ccc(-n2cnc3cc(F)ccc32)cc1OCc1ccccc1C(F)(F)F.NC(=O)c1ccc(-n2cnc3ccc(F)cc32)cc1OCc1ccccc1C(F)(F)F`, the XC50 was 363 nM. For `COc1cccc(NC(=O)N2CCOC(CCN3CCC4(CCc5ccccc54)CC3)(c3ccc(Cl)c(Cl)c3)C2)c1` (stereo unspecified), the XC50 was 1010 nM. `O=C(NC1CCN(CCC[C@]2(c3ccc(Cl)c(Cl)c3)CCCN(C(=O)c3ccccc3)C2)CC1)c1ccc(Cl)cc1` gave an XC50 of 899 nM. Work on `COc1ccc(-n2c(=O)c3c(n4c(SC(C)C)nnc24)-c2ccccc2CC32CCCCC2)cc1` yielded an XC50 of 502 nM. `Cc1[nH]c2ccccc2c1C1=CCN(CCN2CCOc3c(Br)cccc3C2=O)CC1` gave an XC50 of 797 nM. `c1ccc(-c2[nH]c3ccccc3c2CN2CCC(N3CCCCC3)CC2)nc1` gave an XC50 of 1210 nM. In the case of `COC(=O)C1=C(C)NC2=C(C(=O)CC(c3ccc(OC)c(OC)c3)C2)C1c1cccc(O)c1` (stereo unspecified), the XC50 is reported as 729 nM. Work on `OC(CNc1ccnc(Nc2cccc(Cl)c2)n1)c1ccc(C(F)(F)F)cc1` (stereo unspecified) yielded an XC50 of 768 nM. Work on `Cc1noc(-c2ccc(O)cc2O)c1-c1ccc2c(c1)OCCCO2` yielded an XC50 of 892 nM. `CN(C)CCNCc1ncsc1-c1ccc2c(Nc3ccc(F)cc3Cl)ccnc2c1` showed an XC50 of 1470 nM. `c1cc(COc2ccc(C3=NCCN3)cc2)nc(COc2ccc(C3=NCCN3)cc2)c1` showed an XC50 of 147 nM. With `N=C(N)Nc1ccc(C(=O)O)c(O)c1` the XC50 was 1030 nM. Work on `O=C(c1ccc(-c2ccc(-c3nc4cc(C(F)(F)F)ccc4[nH]3)s2)cc1)N1CCN(CCc2ccccc2)CC1` yielded an XC50 of 592 nM. Molecule `Cc1ccc(CNC(=O)[C@H](Cc2ccccc2)Nc2cc(C)nc(NCC3CCCCC3)n2)cc1` has an XC50 of 899 nM. `CN1CCC(N2CCC(Oc3cccc(C(=O)NCCCC4CCCC4)c3)CC2)CC1` gave an XC50 of 843 nM.
